Key:
PC-3 = assay: Anti-proliferative activity against human PC3 cells measured after 96 hrs by MTT assay; assay type: functional; settings: PC-3, 96 h
LNCaP = assay: Anti-proliferative activity against human LNCAP cells measured after 96 hrs by MTT assay; assay type: functional
[1] = target: Peptidyl-prolyl cis-trans isomerase NIMA-interacting 1 (Homo sapiens, UniProt Q13526); assay: Inhibition of Pin1 (unknown origin) using Suc-Ala-Glu-cis-Pro-Phe-4-nitroanilide as substrate preincubated for 30 mins followed by substrate addition measured for 90 secs by protease-enzyme coupled assay
Peptidyl-prolyl cis-trans isomerase NIMA-interacting 1, sequence (Q13526 whole entry): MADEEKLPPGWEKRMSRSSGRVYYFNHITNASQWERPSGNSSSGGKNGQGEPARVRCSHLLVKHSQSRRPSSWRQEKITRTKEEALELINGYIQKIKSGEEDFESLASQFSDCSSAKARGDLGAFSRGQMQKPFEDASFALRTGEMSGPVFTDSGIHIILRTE

GI50 (PC-3)	GI50 (LNCaP)	IC50 [1]	SMILES
> 12.5 µM	> 12.5 µM	–	COC(=O)[C@@]1(C)C(=O)C=C[C@]2(C)[C@H]3C(=O)C=C4[C@@H]5[C@@H](C)[C@H](C)CC[C@]5(C)CC[C@@]4(C)[C@]3(C)CC[C@@H]12
4.22 µM	3.59 µM	–	C[C@H]1[C@H](C)CC[C@]2(C)CC[C@]3(C)C(=CC(=O)[C@@H]4[C@@]5(C)C=C(I)C(=O)[C@](C)(C(=O)N6CCC(N7CCCCC7)CC6)[C@@H]5CC[C@]43C)[C@H]12
2.89 µM	1.14 µM	–	C[C@H]1[C@H](C)CC[C@]2(C)CC[C@]3(C)C(=CC(=O)[C@@H]4[C@@]5(C)C=C(C#N)C(=O)[C@](C)(C(=O)N6CCCCC6)[C@@H]5CC[C@]43C)[C@H]12
> 12.5 µM	> 12.5 µM	–	COC(=O)[C@@]1(C)C(=O)C(I)=C[C@]2(C)[C@H]3C(=O)C=C4[C@@H]5[C@@H](C)[C@H](C)CC[C@]5(C)CC[C@@]4(C)[C@]3(C)CC[C@@H]12
2.48 µM	4.71 µM	–	CC1CCN(C(=O)[C@@]2(C)C(=O)C(C(F)(F)F)=C[C@]3(C)[C@H]4C(=O)C=C5[C@@H]6[C@@H](C)[C@H](C)CC[C@]6(C)CC[C@@]5(C)[C@]4(C)CC[C@@H]23)CC1
3.76 µM	5.37 µM	–	C[C@H]1[C@H](C)CC[C@]2(C)CC[C@]3(C)C(=CC(=O)[C@@H]4[C@@]5(C)C=C(C#N)C(=O)[C@](C)(C(=O)N6CCCC6)[C@@H]5CC[C@]43C)[C@H]12
2.64 µM	3.29 µM	–	C[C@H]1[C@H](C)CC[C@]2(C)CC[C@]3(C)C(=CC(=O)[C@@H]4[C@@]5(C)C=C(C(F)(F)F)C(=O)[C@](C)(C(=O)N6CCCC6)[C@@H]5CC[C@]43C)[C@H]12
31.9 µM	27.4 µM	53 µM	CC(=O)O[C@@H]1CC[C@@]2(C)[C@@H](CC[C@]3(C)[C@@H]2C(=O)C=C2[C@@H]4[C@@H](C)[C@H](C)CC[C@]4(C)CC[C@]23C)[C@@]1(C)C(=O)O [AKBA]
0.13 µM	0.67 µM	–	C[C@H]1[C@H](C)CC[C@]2(C)CC[C@]3(C)C(=CC(=O)[C@@H]4[C@@]5(C)C=C(C#N)C(=O)[C@](C)(C(=O)N6CCC(N7CCCCC7)CC6)[C@@H]5CC[C@]43C)[C@H]12
3.78 µM	7.82 µM	–	COC(=O)[C@@]1(C)C(=O)C(C(F)(F)F)=C[C@]2(C)[C@H]3C(=O)C=C4[C@@H]5[C@@H](C)[C@H](C)CC[C@]5(C)CC[C@@]4(C)[C@]3(C)CC[C@@H]12
> 12.5 µM	> 12.5 µM	–	CC1CCN(C(=O)[C@@]2(C)C(=O)C(I)=C[C@]3(C)[C@H]4C(=O)C=C5[C@@H]6[C@@H](C)[C@H](C)CC[C@]6(C)CC[C@@]5(C)[C@]4(C)CC[C@@H]23)CC1
1.43 µM	1.79 µM	–	C[C@H]1[C@H](C)CC[C@]2(C)CC[C@]3(C)C(=CC(=O)[C@@H]4[C@@]5(C)C=C(C(F)(F)F)C(=O)[C@](C)(C(=O)N6CCC(N7CCCCC7)CC6)[C@@H]5CC[C@]43C)[C@H]12
5.11 µM	3.92 µM	–	C[C@H]1[C@H](C)CC[C@]2(C)CC[C@]3(C)C(=CC(=O)[C@@H]4[C@@]5(C)C=C(C(F)(F)F)C(=O)[C@](C)(C(=O)OCc6ccccc6)[C@@H]5CC[C@]43C)[C@H]12
> 12.5 µM	> 12.5 µM	–	C[C@H]1[C@H](C)CC[C@]2(C)CC[C@]3(C)C(=CC(=O)[C@@H]4[C@@]5(C)C=CC(=O)[C@](C)(C(=O)OCc6ccccc6)[C@@H]5CC[C@]43C)[C@H]12
2.07 µM	3.82 µM	–	CC1CCN(C(=O)[C@@]2(C)C(=O)C(C#N)=C[C@]3(C)[C@H]4C(=O)C=C5[C@@H]6[C@@H](C)[C@H](C)CC[C@]6(C)CC[C@@]5(C)[C@]4(C)CC[C@@H]23)CC1
> 12.5 µM	> 12.5 µM	–	C[C@H]1[C@H](C)CC[C@]2(C)CC[C@]3(C)C(=CC(=O)[C@@H]4[C@@]5(C)C=C(I)C(=O)[C@](C)(C(=O)N6CCCCC6)[C@@H]5CC[C@]43C)[C@H]12
0.45 µM	1.66 µM	–	C[C@H]1[C@H](C)CC[C@]2(C)CC[C@]3(C)C(=CC(=O)[C@@H]4[C@@]5(C)C=C(C#N)C(=O)[C@](C)(C(=O)OCc6ccccc6)[C@@H]5CC[C@]43C)[C@H]12
1.07 µM	2.18 µM	9.6 µM	C[C@H]1[C@H](C)CC[C@]2(C)CC[C@]3(C)C(=CC(=O)[C@@H]4[C@@]5(C)C=C(C(F)(F)F)C(=O)[C@](C)(C(=O)N6CCNCC6)[C@@H]5CC[C@]43C)[C@H]12
3.27 µM	3.21 µM	–	C[C@H]1[C@H](C)CC[C@]2(C)CC[C@]3(C)C(=CC(=O)[C@@H]4[C@@]5(C)C=C(C(F)(F)F)C(=O)[C@](C)(C(=O)N6CCCCC6)[C@@H]5CC[C@]43C)[C@H]12
> 12.5 µM	> 12.5 µM	–	C[C@H]1[C@H](C)CC[C@]2(C)CC[C@]3(C)C(=CC(=O)[C@@H]4[C@@]5(C)C=C(I)C(=O)[C@](C)(C(=O)OCc6ccccc6)[C@@H]5CC[C@]43C)[C@H]12
4.65 µM	3.78 µM	–	C[C@H]1[C@H](C)CC[C@]2(C)CC[C@]3(C)C(=CC(=O)[C@@H]4[C@@]5(C)C=C(I)C(=O)[C@](C)(C(=O)O)[C@@H]5CC[C@]43C)[C@H]12
3.36 µM	2.98 µM	4.29 µM	C[C@H]1[C@H](C)CC[C@]2(C)CC[C@]3(C)C(=CC(=O)[C@@H]4[C@@]5(C)C=C(I)C(=O)[C@](C)(C(=O)N6CCNCC6)[C@@H]5CC[C@]43C)[C@H]12
4.38 µM	4.26 µM	–	C[C@H]1[C@H](C)CC[C@]2(C)CC[C@]3(C)C(=CC(=O)[C@@H]4[C@@]5(C)C=C(C(F)(F)F)C(=O)[C@](C)(C(=O)O)[C@@H]5CC[C@]43C)[C@H]12
0.18 µM	0.7 µM	–	C[C@H]1[C@H](C)CC[C@]2(C)CC[C@]3(C)C(=CC(=O)[C@@H]4[C@@]5(C)C=C(C#N)C(=O)[C@](C)(C(=O)O)[C@@H]5CC[C@]43C)[C@H]12
> 12.5 µM	> 12.5 µM	–	C[C@H]1[C@H](C)CC[C@]2(C)CC[C@]3(C)C(=CC(=O)[C@@H]4[C@@]5(C)C=C(I)C(=O)[C@](C)(C(=O)N6CCCC6)[C@@H]5CC[C@]43C)[C@H]12
1.2 µM	2.34 µM	–	COC(=O)[C@@]1(C)C(=O)C(C#N)=C[C@]2(C)[C@H]3C(=O)C=C4[C@@H]5[C@@H](C)[C@H](C)CC[C@]5(C)CC[C@@]4(C)[C@]3(C)CC[C@@H]12

From ChEMBL document CHEMBL4000186, “Design and synthesis of novel 2-substituted 11-keto-boswellic acid heterocyclic derivatives as anti-prostate cancer agents with Pin1 inhibition ability” (Eur J Med Chem, 2017)
